The text below walks through data of patent publication US8349851B2, “JAK kinase modulating compounds and methods of use thereof” (Ambit Biosciences Corp., priority 2009, dated 2013).

Molecules are shown by their SMILES.

The subject of test [1] is csTF-1 cells (GM-CSFR/JAK2/STAT5 pathway). The test can be described thus: csTF-1 cell-based reporter assay. Also noted: species or system human. The settings on record: Homo sapiens; GM-CSF at 2 ng/mL, 4 hours; read-out: Cell Assay: CS0017: CS TF-1 reporter assay: IC50. As to the method: csTF-1 Cell-based Reporter Assay
csTF-1 cells are derived from the human erythroleukemia cell line that is growth dependent on GM-CSF and has an intact GM-CSFR/JAK2/STAT5 pathway. The cell line contains stably integrated beta-lactamase reporter gene under the control of the […] (irf 1) response element recognized by the activated transcription factor STATS. csTF-1 cells (Invitrogen K1219) were washed with assay media (97% OPTIMEM/0.5% dialyzed FBS/0.1 mM NEAA/1 mM Na pyr/P/S) and seeded in the same media at 5×10^5 cell/mL in T150 flask. After 16 hour incubation, cells were seeded at 2×10^5 cell/well in 50 μl volume, into Costar, clear bottom, 96-well assay plates. Serial dilutions of compounds were added to the plates with final DMSO concentration at 0.5% and GM-CSF at 2 ng/mL and the plates were then incubated at […] and 5% CO2 for 4 hours. The plates were brought to room temperature before adding Substrate Mixture according to manufacturer's protocol (Invitrogen, Catalog #K1085). The assay plates containing the substrate mixture were incubated in the dark at room temperature for 2 hours. Blue and green fluorescence was measured with excitation at 409 nm and emission at 460 nm (for blue) and excitation at 409 nm and emission at 530 nm (for green) using Spectra Max Gemini EM.
Background: In a reporter assay the amount or activity of a reporter protein is the signal.

The target of another test is T1, JAK3 (Homo sapiens, UniProt P52333).
T1 construct: made in house
The test can be described thus: Competition binding assay, JAK3. The settings on record: read-out: Binding Assay: JAK3 (active_KD, ENZ). From the text:
(§1) Competition Binding Assay to Determine Binding Constants (Kd) of the Compounds Against JAK Kinases
(§2) Competition binding assays used herein were developed, validated and performed as described in Fabian et al., Nature Biotechnology 2005, 23,329-336. Kinases were produced as fusions to T7 phage (See, Fabian et al. or WO04/015142) or alternatively, the kinases were expressed in HEK-293 cells and subsequently tagged with DNA for PCR detection (See, WO08/005310). For the binding assays, streptavidin-coated magnetic beads were treated with biotinylated affinity ligands for 30 min at rt to generate affinity resins. The liganded beads were blocked with excess biotin and washed with blocking buffer (SeaBlock (Pierce), 1% BSA, 0.05% Tween 20, 1 mM DTT) to remove unbound ligand and to reduce non-specific binding. […] Test compounds were prepared as 100× stocks in DMSO and rapidly diluted into the aqueous environment. DMSO was added to control assays lacking a test compound. Primary screen interactions were performed in polypropylene 384-well plates in a final volume of 34 μL, while Kd determinations were performed in polystyrene 96-well plates in a final volume of 135 μL. […] The kinase concentration in the eluates was measured by quantitative PCR. Each kinase was tested individually against each compound. Kds were determined using eleven serial threefold dilutions. A selectivity score, which is a quantitative measure of selectivity of a compound against a panel of enzymes, may be calculated for a compound by dividing the number of enzymes for which a compound meets a set criteria, (for example, a binding constant of 100 nM or less), by the total number of enzymes tested.

For a further test, the target named is T2, JAK2 (Homo sapiens, UniProt O60674).
T2 construct: made in house
The test can be described thus: Competition binding assay, JAK2. To be noted: read-out: Binding Assay: JAK2 (active_KD).
Source text: as §1, §2

T2 sequence (O60674 849-1124 limits assumed): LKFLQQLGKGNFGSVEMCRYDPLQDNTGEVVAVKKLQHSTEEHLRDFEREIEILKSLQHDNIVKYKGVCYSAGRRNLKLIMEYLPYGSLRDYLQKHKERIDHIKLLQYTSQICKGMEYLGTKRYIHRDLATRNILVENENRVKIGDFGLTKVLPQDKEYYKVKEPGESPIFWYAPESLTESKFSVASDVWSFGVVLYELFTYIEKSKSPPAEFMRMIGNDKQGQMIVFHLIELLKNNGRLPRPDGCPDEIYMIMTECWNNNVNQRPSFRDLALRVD
T1 sequence (P52333 822-1111 limits assumed): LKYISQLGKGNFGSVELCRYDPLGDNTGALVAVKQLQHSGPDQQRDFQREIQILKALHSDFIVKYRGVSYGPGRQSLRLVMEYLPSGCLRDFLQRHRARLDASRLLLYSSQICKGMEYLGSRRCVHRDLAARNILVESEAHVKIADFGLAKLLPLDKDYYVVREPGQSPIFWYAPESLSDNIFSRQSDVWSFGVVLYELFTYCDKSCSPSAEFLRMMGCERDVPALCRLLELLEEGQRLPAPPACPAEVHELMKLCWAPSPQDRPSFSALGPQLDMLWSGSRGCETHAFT

As a reminder, the IC50 is the concentration at which inhibition is half-maximal. As to `Cc1cc(Nc2nc(C(O)c3ccc(F)cc3)nc3ccc(F)cc23)n[nH]1` (racemic) [Example 54, (R,S)-(6-fluoro-4-(5-methyl-1H-pyrazol-3-ylamino)quinazolin-2-yl)(4-fluorophenyl)methanol], the IC50 in test [1] lay within 0.1 to 0.5 µM. Also, the Kd on JAK3 is greater than 0.1 µM; on JAK2, 0.001 to 0.01 µM.
The matching figures for `OC(c1ccc(F)cc1)c1nc(Nc2cc[nH]n2)c2cc(F)ccc2n1` (racemic) [Example 55, (R,S)-(4-(1H-pyrazol-3-ylamino)-6-fluoroquinazolin-2-yl)(4-fluorophenyl)methanol]: greater than 0.5 µM, greater than 0.1 µM and 0.001 to 0.01 µM.
The corresponding values for `OC(c1ccc(F)cc1)c1nc(Nc2cc[nH]n2)c2ccc(Br)cc2n1` (racemic) [Example 58, (R,S)-(4-(1H-pyrazol-3-ylamino)-7-bromoquinazolin-2-yl)(4-fluorophenyl)methanol] are 0.1 to 0.5 µM, greater than 0.1 µM and 0.001 to 0.01 µM.
Take `Cc1cc(Nc2nc(C(O)c3ccc(F)cc3)nc3c(F)cccc23)n[nH]1` (racemic) [Example 61, (R,S)-(8-fluoro-4-(5-methyl-1H-pyrazol-3-ylamino)quinazolin-2-yl)(4-fluorophenyl)methanol]: the IC50 in test [1] was in the range of 0.1 to 0.5 µM. Moreover, the Kd is 0.01 to 0.1 µM at JAK3 and no more than 0.001 µM on JAK2.
The corresponding values for `COc1ccccc1C(O)c1nc(Nc2cc(C)[nH]n2)c2ccccc2n1` (racemic) [Example 63, (R,S)-(2-methoxyphenyl)(4-(5-methyl-1H-pyrazol-3-ylamino)quinazolin-2-yl)methanol] are 0.1 to 0.5 µM, 0.01 to 0.1 µM and 0.001 to 0.01 µM.
The matching figures for `Cc1cc(Nc2nc(C(O)c3ccc(F)c(F)c3)nc3ccccc23)n[nH]1` (racemic) [Example 66, (R,S)-(3,4-difluorophenyl)(4-(5-methyl-1H-pyrazol-3-ylamino)quinazolin-2-yl)methanol]: 0.1 to 0.5 µM, no more than 0.01 µM and no more than 0.001 µM.
On to `[2H]C(O)(c1ccc(F)cc1)c1nc(Nc2cc(C)[nH]n2)c2ccccc2n1` (racemic) [Example 72, (R,S) (4-fluorophenyl)(4-(5-methyl-1H-pyrazol-3-ylamino)quinazolin-2-yl)methanol-1-d], for which, in test [1], the IC50 was no more than 0.1 µM.
`CCc1cc(Nc2nc(C(O)c3ccc(F)cc3)nc3ccccc23)n[nH]1` (racemic) [Example 74, (R,S)-(4-(5-ethyl-1H-pyrazol-3-ylamino)quinazolin-2-yl)(4-fluorophenyl)methanol]: the Kd on JAK2 is no more than 0.001 µM.
Still for that read-out and setting: the value for `Cc1cc(Nc2nc(C(O)c3ccc(F)c(O)c3)nc3ccccc23)n[nH]1` (racemic) [Example 78, (R,S)-(2-fluoro-5-(hydroxy(4-(5-methyl-1H-pyrazol-3-ylamino)quinazolin-2-yl)methyl)phenol acetate] was no more than 0.001 µM.
For `Fc1ccc(C(F)(F)c2nc(Nc3cc[nH]n3)c3ccc(F)cc3n2)cc1` [Example 21, 2-(difluoro(4-fluorophenyl)methyl)-7-fluoro-N-(1H-pyrazol-3-yl)quinazolin-4-amine], the IC50 in test [1] was 0.1 to 0.5 µM. Besides, the Kd on JAK3 lay in the range of 0.01 to 0.1 µM; at JAK2 it was 0.001 to 0.01 µM.
Regarding `O=C(c1ccc(F)cc1)c1nc(Nc2cc[nH]n2)c2ccc(I)cc2n1` [Example 22, (4-(1H-pyrazol-3-ylamino)-7-iodoquinazolin-2-yl)(4-fluorophenyl)methanone], the IC50 in test [1] lay in the range of 0.1 to 0.5 µM. The Kd was greater than 0.1 µM at JAK3 and 0.001 to 0.01 µM on JAK2.
The corresponding values for `Cc1ccc2c(Nc3cc[nH]n3)nc(C(F)(F)c3ccc(F)cc3)nc2c1` [Example 27, 2-(difluoro(4-fluorophenyl)methyl)-7-methyl-N-(1H-pyrazol-3-yl)quinazolin-4-amine] are no more than 0.1 µM, 0.01 to 0.1 µM and no more than 0.001 µM.
The corresponding values for `Cc1cc(Nc2nc(C(F)(F)c3ccc(F)cc3)nc3cc(CO)ccc23)n[nH]1` [Example 49, (2-(difluoro(4-fluorophenyl)methyl)-4-(5-methyl-1H-pyrazol-3-ylamino)quinazolin-7-yl)methanol] are no more than 0.1 µM, no more than 0.01 µM and no more than 0.001 µM.
On to `Cc1cc(Nc2nc(C(=O)c3ccc(F)cc3)nc3ccc(F)cc23)n[nH]1` [Example 53, (6-fluoro-4-(5-methyl-1H-pyrazol-3-ylamino)quinazolin-2-yl)(4-fluorophenyl)methanone], for which, in test [1], the IC50 was in the range of 0.1 to 0.5 µM. Also, the Kd at JAK3 was greater than 0.1 µM; on JAK2, 0.001 to 0.01 µM.
`Cc1cc(Nc2nc(C(=O)c3ccc(F)cc3)nc3cc(Br)ccc23)n[nH]1` [Example 56, (7-bromo-4-(5-methyl-1H-pyrazol-3-ylamino)quinazolin-2-yl)(4-fluorophenyl)methanone]: the concentration for half-maximal inhibition (IC50) in test [1] lay in the range of 0.1 to 0.5 µM. Moreover, the Kd lay in the range of 0.01 to 0.1 µM on JAK3 and 0.001 to 0.01 µM on JAK2.
`Cc1cc(Nc2nc(C(O)c3ccc(F)cc3)nc3cc(Br)ccc23)n[nH]1` (stereo not shown) [Example 57, (7-bromo-4-(5-methyl-1H-pyrazol-3-ylamino)quinazolin-2-yl)(4-fluorophenyl)methanol]: in test [1], the IC50 was in the range of 0.1 to 0.5 µM. Further, the Kd at JAK2 was in the range of 0.001 to 0.01 µM.
On to `Cc1cc(Nc2nc(C3(c4ccc(F)cc4)OCCO3)nc3ccccc23)n[nH]1` [Example 59, 2-(2-(4-fluorophenyl)-1,3-dioxolan-2-yl)-N-(5-methyl-1H-pyrazol-3-yl)quinazolin-4-amine], for which, in test [1], the IC50 was no more than 0.1 µM. The results for the Kd on JAK3 and at JAK2 were 0.01 to 0.1 µM and no more than 0.001 µM, respectively.
The corresponding values for `Cc1cc(Nc2nc(C(=O)c3ccc(F)cc3)nc3c(F)cccc23)n[nH]1` [Example 60, (8-fluoro-4-(5-methyl-1H-pyrazol-3-ylamino)quinazolin-2-yl)(4-fluorophenyl)methanone] are 0.1 to 0.5 µM, greater than 0.1 µM and 0.001 to 0.01 µM.
The matching figures for `COc1ccccc1C(=O)c1nc(Nc2cc(C)[nH]n2)c2ccccc2n1` [Example 62, (2-methoxyphenyl)(4-(5-methyl-1H-pyrazol-3-ylamino)quinazolin-2-yl)methanone]: 0.1 to 0.5 µM, greater than 0.1 µM and 0.001 to 0.01 µM.
The matching figures for `Cc1cc(Nc2nc(C(O)c3cccc(F)c3)nc3ccccc23)n[nH]1` (stereo not shown) [Example 64, (3-fluorophenyl)(4-(5-methyl-1H-pyrazol-3-ylamino)quinazolin-2-yl)methanol]: 0.1 to 0.5 µM, 0.01 to 0.1 µM and 0.001 to 0.01 µM.
For the compound `Cc1cc(Nc2nc(C(NC=O)c3ccc(F)cc3)nc3ccccc23)n[nH]1` (stereo not shown) [Example 65, N-((4-fluorophenyl)(4-(5-methyl-1H-pyrazol-3-ylamino)quinazolin-2-yl)methyl)formamide], the IC50 in test [1] lay within 0.1 to 0.5 µM. Further, the Kd on JAK3 is 0.01 to 0.1 µM; on JAK2 it was no more than 0.001 µM.
As to `Cc1cc(Nc2nc(C(O)c3ccc(F)c(Cl)c3)nc3ccccc23)n[nH]1` (stereo not shown) [Example 67, (3-chloro-4-fluorophenyl)(4-(5-methyl-1H-pyrazol-3-ylamino)quinazolin-2-yl)methanol], the IC50 in test [1] lay within 0.1 to 0.5 µM. Moreover, the results for the Kd at JAK3 and at JAK2 were no more than 0.01 µM and no more than 0.001 µM, respectively.
In the case of `COc1cc(C(=O)c2nc(Nc3cc(C)[nH]n3)c3ccccc3n2)ccc1F` [Example 76, (4-fluoro-3-methoxyphenyl)(4-(5-methyl-1H-pyrazol-3-ylamino)quinazolin-2-yl)methanone], the Kd on JAK2 is greater than 0.01 µM.
On the same count and under the same terms, the value for `Cc1cc(Nc2nc(C(=O)c3ccc(F)c(O)c3)nc3ccccc23)n[nH]1` [Example 77, (4-fluoro-3-hydroxyphenyl)(4-(5-methyl-1H-pyrazol-3-ylamino)quinazolin-2-yl)methanone] was greater than 0.01 µM.
